In patent publication US10076519B2 (CYTOKINETICS, INC., priority 2010, dated 2018):

Tested on: rabbit skeletal myofibrils (fast skeletal myofibrils)
Assay: Activation of fast skeletal myofibrils (PUMA assay, PK/LDH-coupled ATPase at pCa25)
Type: biochemical
Summary of the method: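 ATPase activity of Triton-washed rabbit skeletal myofibrils, roughly 90% fast fibres, tracked by NADH loss at 340 nm through a PK/LDH-coupled ADP-regenerating system. Calcium set to 25% of maximal activity (pCa25), in PIPES 12 mM pH 6.8 with 2 mM MgCl2 and 1 mM DTT; AC1.4 reported.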

[1] = median AC1.4 reported as class, procedure of Example 39
[2] = AC1.4 determined according to the procedure of Example 39, reported as class symbols
[3] = median AC1.4 class, procedure of Example 39

Row | Compound | Mean AC1.4 [2] | Mean AC1.4 [3] | further results
1 | O=C(O)c1ccc(NCC2(c3ncccc3F)CCC2)nn1 [6-({[(3-fluoro-2-pyridyl)cyclobutyl]methyl}ami-no)pyridazine-3-carboxylic acid] |  |  | Mean AC1.4 [1]: D (D=>20 uM)
2 | NC(=O)c1csc2nc(-c3ccc(NC[C@]4(c5ncccc5F)C[C@H](F)C4)nn3)cn12 [6-[6-({[3-fluoro-1-(3-fluoro(2-pyridyl))cyclobutyl]methyl}ami-no)pyridazin-3-yl]imidazo[2,1-b]1,3-thiazoline-3-carboxamide] |  | A (A=<1 uM) | 
3 | O=C1NCc2ccc(-c3ccc(NC[C@]4(c5ncccc5F)C[C@H](F)C4)nn3)cc21 [6-[6-({[3-fluoro-1-(3-fluoro(2-pyridyl))cyclobutyl]methyl}ami-no)pyridazin-3-yl]isoindolin-1-one] |  |  | Mean AC1.4 [1]: B (B=1-10 uM)
4 | N#Cc1cncc(-c2ccc(NCC3(c4ncccc4F)CCC3)nn2)n1 [6-[6-({[(3-fluoro-2-pyridyl)cyclobutyl]methyl}ami-no)pyridazin-3-yl]pyrazine-2-carbonitrile] |  | B (B=1-10 uM) | 
5 | NC(=O)c1cncc(-c2ccc(NCC3(c4ncccc4F)CCC3)nn2)n1 [6-[6-({[(3-fluoro-2-pyridyl)cyclobutyl]methyl}ami-no)pyridazin-3-yl]pyrazine-2-carboxamide] |  | C (C=10-20 uM) | 
6 | NC(=O)c1cc(-c2ccc(NCC3(c4ncccc4F)CCC3)nn2)ncn1 [6-[6-({[(3-fluoro-2-pyridyl)cyclobutyl]methyl}ami-no)pyridazin-3-yl]pyrimidine-4-carboxamide] |  | B (B=1-10 uM) | 
7 | CN1CCN(C(=O)c2ccc(NCC(C)(C)c3ccc(F)cc3)nn2)CC1 [6-{[2-(4-fluorophenyl)-2-methylpropyl]amino}pyridazin-3-yl 4-methylpiperazinyl ketone] | D (D=>20 uM) |  | 
8 | CC(C)(CNc1ccc(C(N)=O)nn1)c1ccc(F)cc1 [6-{[2-(4-fluorophenyl)-2-methylpropyl]amino}pyridazine-3-carboxamide] | C (C=10-20 uM) |  | 
9 | O=c1cc(-c2ccc(NCC3(c4ncccc4F)CCC3)nn2)nc2[nH]ccn12 [7-[6-({[(3-fluoro-2-pyridyl)cyclobutyl]methyl}ami-no)pyridazin-3-yl]-4-hydro-4-imidazolino[1,2-a]pyrimidin-5-one] |  |  | Mean AC1.4 [1]: B (B=1-10 uM)
10 | N[C@H](CO)C(=O)NCc1cnc(-c2ccc(NCC3(c4ncccc4F)CCC3)nn2)s1 [(2R)-2-amino-N-({2-[6-({[(3-fluoro(2-pyridyl))cyclobutyl]methyl}ami-no)pyridazin-3-yl](1,3-thiazol-5-yl)}methyl)-3-hydroxypropanamide] |  | A (A=<1 uM) | 
11 | C[C@@H](O)C(=O)NCc1cnc(-c2ccc(NCC3(c4ncccc4F)CCC3)nn2)s1 [(2R)-N-({2-[6-({[(3-fluoro(2-pyridyl))cyclobutyl]methyl}ami-no)pyridazin-3-yl](1,3-thiazol-5-yl)}methyl)-2-hydroxypropanamide] |  |  | Mean AC1.4 [1]: A (A=<1 uM)
12 | C[C@H](N)C(=O)NCc1cnc(-c2ccc(NCC3(c4ncccc4F)CCC3)nn2)s1 [(2S)-2-amino-N-({2-[6-({[(3-fluoro(2-pyridyl))cyclobutyl]methyl}ami-no)pyridazin-3-yl](1,3-thiazol-5-yl)}methyl)propanamide] |  | A (A=<1 uM) | 
13 | C[C@H](O)C(=O)NCc1cnc(-c2ccc(NCC3(c4ncccc4F)CCC3)nn2)s1 [(2S)-N-({2-[6-({[(3-fluoro(2-pyridyl))cyclobutyl]methyl}ami-no)pyridazin-3-yl](1,3-thiazol-5-yl)}methyl)-2-hydroxypropanamide] |  |  | Mean AC1.4 [1]: A (A=<1 uM)
14 | NC1(C(=O)NCc2cnc(-c3ccc(NCC4(c5ncccc5F)CCC4)nn3)s2)COC1 [(3-aminooxetan-3-yl)-N-({2-[6-({[(3-fluoro(2-pyridyl))cyclobutyl]methyl}ami-no)pyridazin-3-yl](1,3-thiazol-5-yl)}methyl)carboxamide] |  |  | Mean AC1.4 [1]: A (A=<1 uM)
15 | CC(C)(CNc1ccc(-c2cccc3[nH]ncc23)nn1)c1ccc(F)cc1 [(6-(1H-indazol-4-yl)pyridazin-3-yl)[2-(4-fluorophenyl)-2-methylpropyl]amine] | A (A=<1 uM) |  | 
16 | CC(C)(Nc1ccc(-c2ccc3[nH]ncc3c2)nn1)c1ccccc1 [(6-(1H-indazol-5-yl)pyridazin-3-yl)(1-methyl-1-phenylethyl)amine] |  | B (B=1-10 uM) | 
17 | CC(C)(CNc1ccc(-c2ccc3[nH]ncc3c2)nn1)c1ncccc1F [(6-(1H-indazol-5-yl)pyridazin-3-yl)[2-(3-fluoro(2-pyridyl))-2-methylpropyl]amine] | B (B=1-10 uM) |  | 
18 | CC(C)(CNc1ccc(-c2ccc3[nH]ncc3c2)nn1)c1ccc(F)cc1 [(6-(1H-indazol-5-yl)pyridazin-3-yl)[2-(4-fluorophenyl)-2-methylpropyl]amine] | A (A=<1 uM) |  | 
19 | c1ccc(C2(CNc3ccc(-c4ccc5[nH]ncc5c4)nn3)CCC2)nc1 [(6-(1H-indazol-5-yl)pyridazin-3-yl)[(2-pyridylcyclobutyl)methyl]amine] | A (A=<1 uM) |  | 
20 | Fc1cccnc1C1(CNc2ccc(-c3ccc4[nH]ncc4c3)nn2)CC(F)(F)C1 [(6-(1H-indazol-5-yl)pyridazin-3-yl){[3,3-difluoro-1-(3-fluoro(2-pyridyl))cyclobutyl]methyl}amine] |  | B (B=1-10 uM) | 
21 | Fc1cccnc1C1(CNc2ccc(-c3ccc4[nH]ncc4c3)nn2)CCC1 [(6-(1H-indazol-5-yl)pyridazin-3-yl){[(3-fluoro(2-pyridyl))cyclobutyl]methyl}amine] | A (A=<1 uM) |  | 

Further lines, with some results ahead:

Row | Mean AC1.4 [2] | Mean AC1.4 [3] | Compound | further results
22 | D (D=>20 uM) |  | Oc1cccc(C2(CNc3ccc(-c4ccc5[nH]ncc5c4)nn3)CCC2)n1 [6-({[(6-(1H-indazol-5-yl)pyridazin-3-yl)amino]methyl}cyclobutyl) pyridin-2-ol] | 
23 | D (D=>20 uM) |  | Oc1cccc(C2(CNc3ccc(-c4ccc5cn[nH]c5c4)nn3)CCC2)n1 [6-({[(6-(1H-indazol-6-yl)pyridazin-3-yl)amino]methyl}cyclobutyl) pyridin-2-ol] | 
24 |  | A (A=<1 uM) | NC(=O)c1csc2nc(-c3ccc(NCC4(c5ncccc5F)CCC4)nn3)cn12 [6-[6-({[(3-fluoro-2-pyridyl)cyclobutyl]methyl}ami-no)pyridazin-3-yl]imidazo[2,1-b]1,3-thiazoline-3-carboxamide] | 
25 |  | A (A=<1 uM) | O=C(O)c1csc2nc(-c3ccc(NCC4(c5ncccc5F)CCC4)nn3)cn12 [6-[6-({[(3-fluoro-2-pyridyl)cyclobutyl]methyl}ami-no)pyridazin-3-yl]imidazo[2,1-b]1,3-thiazoline-3-carboxylic acid] | 
26 | D (D=>20 uM) |  | CC(C)(CNc1ccc(C(=O)N2CCOCC2)nn1)c1ccc(F)cc1 [6-{[2-(4-fluorophenyl)-2-methylpropyl]amino}pyridazin-3-yl morpholin-4-yl ketone] | 
27 | D (D=>20 uM) |  | CC(C)(CNc1ccc(C(=O)N2CCNCC2)nn1)c1ccc(F)cc1 [6-{[2-(4-fluorophenyl)-2-methylpropyl]amino}pyridazin-3-yl piperazinyl ketone] | 
28 | D (D=>20 uM) |  | CC(C)(CNc1ccc(C#N)nn1)c1ccc(F)cc1 [6-{[2-(4-fluorophenyl)-2-methylpropyl]amino}pyridazine-3-carbonitrile] | 
29 | D (D=>20 uM) |  | CC(C)(CNc1ccc(C(=O)O)nn1)c1ccc(F)cc1 [6-{[2-(4-fluorophenyl)-2-methylpropyl]amino}pyridazine-3-carboxylic acid] | 
30 |  | B (B=1-10 uM) | CC(C)(Nc1ccc(-c2ccccc2)nn1)c1ccccc1 [(1-methyl-1-phenylethyl)(6-phenylpyridazin-3-yl)amine] | 
31 |  | B (B=1-10 uM) | N#C/N=C(/N)c1cnc(-c2ccc(NCC3(c4ncccc4F)CCC3)nn2)s1 [(2E)-3-amino-3-{2-[6-({[(3-fluoro(2-pyridyl))cyclobutyl]methyl}ami-no)pyridazin-3-yl](1,3-thiazol-5-yl)}-2-azaprop-2-enenitrile] | 
32 |  | A (A=<1 uM) | C[C@@H](N)C(=O)NCc1cnc(-c2ccc(NCC3(c4ncccc4F)CCC3)nn2)s1 [(2R)-2-amino-N-({2-[6-({[(3-fluoro(2-pyridyl))cyclobutyl]methyl}ami-no)pyridazin-3-yl](1,3-thiazol-5-yl)}methyl)propanamide] | 
33 |  | A (A=<1 uM) | N[C@@H](CO)C(=O)NCc1cnc(-c2ccc(NCC3(c4ncccc4F)CCC3)nn2)s1 [(2S)-2-amino-N-({2-[6-({[(3-fluoro(2-pyridyl))cyclobutyl]methyl}ami-no)pyridazin-3-yl](1,3-thiazol-5-yl)}methyl)-3-hydroxypropanamide] | 
34 | D (D=>20 uM) |  | CC(C)(CNc1ccc(-c2nnn[nH]2)nn1)c1ccc(F)cc1 [(6-(1H-1,2,3,4-tetraazol-5-yl)pyridazin-3-yl)[2-(4-fluorophenyl)-2-methylpropyl]amine] | 
35 |  | B (B=1-10 uM) | Fc1cccnc1C1(Nc2ccc(-c3ccc4[nH]ncc4c3)nn2)CCC1 [(6-(1H-indazol-5-yl)pyridazin-3-yl)[(3-fluoro(2-pyridyl))cyclobutyl]amine] | 
36 |  | A (A=<1 uM) | Fc1ccc(C2(Nc3ccc(-c4ccc5[nH]ncc5c4)nn3)CCC2)cc1 [(6-(1H-indazol-5-yl)pyridazin-3-yl)[(4-fluorophenyl)cyclobutyl]amine] | 
37 | C (C=10-20 uM) |  | c1cnc(C2(CNc3ccc(-c4ccc5[nH]ncc5c4)nn3)CCC2)cn1 [(6-(1H-indazol-5-yl)pyridazin-3-yl)[(pyrazin-2-ylcyclobutyl)methyl]amine] | 
38 | D (D=>20 uM) |  | CS(=O)(=O)N(CC1(c2ncccc2F)CNC1)c1ccc(-c2ccc3[nH]ncc3c2)nn1 [(6-(1H-indazol-5-yl)pyridazin-3-yl){[3-(3-fluoro(2-pyridyl))azetidin-3-yl]methyl}(methylsulfonyl)amine] | 
39 | D (D=>20 uM) |  | Fc1cccnc1C1(CNc2ccc(-c3ccc4[nH]ncc4c3)nn2)CNC1 [(6-(1H-indazol-5-yl)pyridazin-3-yl){[3-(3-fluoro(2-pyridyl))azetidin-3-yl]methyl}amine] | 
